The target of this experiment is T1, human TGR5 (Homo sapiens, UniProt Q8TDU6).
T1 construct: expressed in transfected cells; host or cells: HEK-293 cells, stably transfected (pcDNA 3.1, Fugene6, geneticin selection)
T1 sequence (Q8TDU6 1-330): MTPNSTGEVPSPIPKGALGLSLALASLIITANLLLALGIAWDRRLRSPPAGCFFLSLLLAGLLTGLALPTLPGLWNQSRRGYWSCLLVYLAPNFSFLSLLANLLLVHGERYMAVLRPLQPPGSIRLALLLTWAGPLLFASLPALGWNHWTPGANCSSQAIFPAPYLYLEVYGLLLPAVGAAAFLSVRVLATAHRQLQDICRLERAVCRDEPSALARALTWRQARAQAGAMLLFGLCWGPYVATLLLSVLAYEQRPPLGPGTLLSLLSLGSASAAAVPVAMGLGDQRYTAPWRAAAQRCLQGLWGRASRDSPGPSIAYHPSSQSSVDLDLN
Nature of the experiment: cAMP production assay in HEK293-TGR5 cells. The experiment is classed as cell-based. The conditions noted are these: HEK293 cells stably expressing human TGR5; 30 minutes stimulation; LANCE cAMP TR-FRET; read-out: cAMP Production in 293-TGR5 Cells EC50. As to the method:
HEK293 cells stably expressing TGR5 (HEK293-TGR5) were established by stably transfecting HEK-293 cells with an expression vector (pcDNA 3.1, Invetrogen) inserted with human TGR5 cDNA using Fugene6 (Roche, Indianapolis, Ind.) according to conventional methods. Cells were grown in DMEM (invitrogen, Carlsbad, Calif.) supplemented with 10% FBS, 1% penicillin/streptomycin under geneticin selection. The presence of TGR5 transcripts in these cells was confirmed using branched DNA (bDNA, Genospectra, Inc., Fremont Calif.) following the manufacturer's protocol and using specific probes for human TGR5. cAMP production assay was performed in high throughput 1536 well format using LANCE cAMP detection kit (Perkin Elmer Inc., Boston, Mass.) according to the manufacturer's protocol. Briefly, HEK293-TGR5 cells were harvested using non-enzymatic cell dissociation buffer (Invitrogen, Carlsbad, Calif.) and suspended in DMEM supplemented with 0.1% FBS at a density of 800,000 cells/ml. Alexa antibody was added to the cell suspension, and 4 ul of the mixture was dispensed in white opaque tissue culture treated Greiner 1536 well plates (USA Scientific, Inc., Ocala, Fla.). After an overnight incubation at 37C in an atmosphere of 10% CO2 and 95% humidity, 1 ul of 5 mM IBMX (Sigma, St. Louis, Mo.) solution in DMEM was dispensed for a final concentration of 1 mM. Cells were then stimulated with test compounds for 30 minutes, after which time 5 ul of detection reagent was added and incubated for 1-7 hrs at room temperature. TR-FRET signal was detected using the Viewlux (Perkin Elmer Inc., Boston Mass.). EC50 values were determined using Graph Pad Prizm analysis (GraphPad Software, Inc).
(Cyclic AMP is a second messenger, typically raised through Gs and lowered through Gi signalling.)
Broadly, the EC50 is the midpoint of the concentration-response curve. Consider `COc1cc(OC)c2cc(CNCc3ccc(C(F)(F)F)cc3)c(-c3ccsc3)nc2c1` [Example 53, 1-(5,7-Dimethoxy-2-(thiophen-3-yl)quinolin-3-yl)-N-(4-(trifluoromethyl)benzyl)methanamine], for which the EC50 was below 10 µM. To `COc1cc(OC)c2cc(CNCCc3ccc(Br)cc3)c(-c3ccsc3)nc2c1` [Example 54, 2-(4-Bromophenyl)-N-((5,7-dimethoxy-2-(thiophen-3-yl)quinolin-3-yl)methyl)ethanamine] belongs below 10 µM; to `COc1ccc2cc(CNCc3ccc(C(F)(F)F)cc3)c(-c3cscc3C)nc2c1` [Example 55, 1-(7-Methoxy-2-(4-methylthiophen-3-yl)quinolin-3-yl)-N-(4-(trifluoromethyl)benzyl)methanamine], above 10 µM. To `COc1ccc2cc(CNCCc3ccc(Br)cc3)c(-c3cscc3C)nc2c1` [Example 56, 2-(4-Bromophenyl)-N-((7-methoxy-2-(4-methylthiophen-3-yl)quinolin-3-yl)methyl)ethanamine] belongs above 10 µM; to `COc1ccc2cc(CNCCc3ccc(Cl)c(Cl)c3)c(-c3ccsc3)nc2c1` [Example 61, 2-(3,4-Dichlorophenyl)-N-((7-methoxy-2-(thiophen-3-yl)quinolin-3-yl)methyl)ethanamine], below 10 µM.

As for `COc1ccc2cc(CNCc3ccc4c(c3)OCO4)c(-c3ccsc3)nc2c1` [Example 64, 1-(Benzo[d][1,3]dioxol-5-yl)-N-((7-methoxy-2-(thiophen-3-yl)quinolin-3-yl)methyl)methanamine], the EC50 was above 10 µM. `COc1ccc2cc(CNCCc3ccc(OC)c(Br)c3)c(-c3ccsc3)nc2c1` [Example 65, 2-(3-Bromo-4-methoxyphenyl)-N-((7-methoxy-2-(thiophen-3-yl)quinolin-3-yl)methyl)ethanamine]: the EC50 is below 10 µM. To `COc1ccc2cc(CNCc3ccc(Cl)c(Cl)c3)c(-c3ccsc3)nc2c1` [Example 66, N-(3,4-Dichlorobenzyl)-1-(7-methoxy-2-(thiophen-3-yl)quinolin-3-yl)methanamine] belongs below 10 µM. To `COc1ccc2cc(CNCc3ccc([N+](=O)[O-])cc3)c(-c3ccsc3)nc2c1` [Example 67, 1-(7-Methoxy-2-(thiophen-3-yl)quinolin-3-yl)-N-(4-nitrobenzyl)methanamine] belongs below 10 µM; to `COc1ccc2cc(CNc3ccccc3)c(-c3ccsc3)nc2c1` [Example 68, N-((7-Methoxy-2-(thiophen-3-yl)quinolin-3-yl)methyl)aniline], below 10 µM. Consider `COc1ccc2cc(CNc3ccc(Cl)cc3)c(-c3ccsc3)nc2c1` [Example 69, 4-Chloro-N-((7-methoxy-2-(thiophen-3-yl)quinolin-3-yl)methyl)aniline], for which the EC50 is below 10 µM. Regarding `COc1ccc2cc(CNCc3ccncc3)c(-c3ccsc3)nc2c1` [Example 70, 1-(7-Methoxy-2-(thiophen-3-yl)quinolin-3-yl)-N-(pyridin-4-ylmethyl)methanamine], the EC50 was above 10 µM. To `COc1ccc2cc(CNCc3cnc(C)cn3)c(-c3ccsc3)nc2c1` [Example 71, 1-(7-Methoxy-2-(thiophen-3-yl)quinolin-3-yl)-N-((5-methylpyrazin-2-yl)methyl)methanamine] belongs below 10 µM; to `COc1ccc2cc(CNCc3cccnc3)c(-c3ccsc3)nc2c1` [Example 72, 1-(7-Methoxy-2-(thiophen-3-yl)quinolin-3-yl)-N-(pyridin-3-ylmethyl)methanamine], above 10 µM. For the compound `COc1ccc2cc(CNCCc3ccc(Br)cc3)c(-c3csc4ccccc34)nc2c1` [Example 73, N-((2-(Benzo[b]thiophen-3-yl)-7-methoxyquinolin-3-yl)methyl)-2-(4-bromophenyl)ethanamine], the EC50 was below 10 µM. In the case of `COc1cc(OC)c(CNCc2cc3ccc(OC)cc3nc2-c2ccncc2)c(OC)c1` [Example 74, 1-(7-Methoxy-2-(pyridin-4-yl)quinolin-3-yl)-N-(2,4,6-trimethoxybenzyl)methanamine], the EC50 was above 10 µM.

As to `COc1ccc2cc(CNCc3ccc(C(C)(C)C)cc3)c(-c3ccncc3)nc2c1` [Example 75, N-(4-tert-Butylbenzyl)-1-(7-methoxy-2-(pyridin-4-yl)quinolin-3-yl)methanamine], the EC50 is below 10 µM. To `COc1ccc2cc(CNCCc3cccnc3)c(-c3ccncc3)nc2c1` [Example 76, N-((7-Methoxy-2-(pyridin-4-yl)quinolin-3-yl)methyl)-2-(pyridin-3-yl)ethanamine] belongs below 10 µM. With `COc1ccc2cc(CNCc3ccc(C(F)(F)F)cc3)c(-c3ccco3)nc2c1` [Example 77, 1-(2-(Furan-2-yl)-7-methoxyquinolin-3-yl)-N-(4-(trifluoromethyl)benzyl)methanamine], the EC50 is above 10 µM. To `COc1ccc2cc(CNCc3ccco3)c(-c3ccsc3)nc2c1` [Example 78, 1-(Furan-2-yl)-N-((7-methoxy-2-(thiophen-3-yl)quinolin-3-yl)methyl)methanamine] belongs below 10 µM; to `Oc1ccc2cc(CNCc3ccc(C(F)(F)F)cc3)c(-c3ccsc3)nc2c1` [Example 79, 2-(Thiophen-3-yl)-3-((4-(trifluoromethyl)benzylamino)methyl)quinolin-7-ol], below 10 µM; to `COc1ccc2cc(CNCCc3ccccn3)c(-c3ccncc3)nc2c1` [Example 80, N-((7-Methoxy-2-(pyridin-4-yl)quinolin-3-yl)methyl)-2-(pyridin-2-yl)ethanamine], above 10 µM. Take `COc1ccc2cc(CNCCCc3ccccc3)c(-c3ccncc3)nc2c1` [Example 81, N-((7-Methoxy-2-(pyridin-4-yl)quinolin-3-yl)methyl)-3-phenylpropan-1-amine]: the 50% effective concentration (EC50) was below 10 µM. To `COc1ccc2cc(CNCc3ccc(C(F)(F)F)cc3)c(Oc3cccnc3)nc2c1` [Example 83, 1-(7-methoxy-2-(pyridin-3-yloxy)quinolin-3-yl)-N-(4-(trifluoromethyl)benzyl)methanamine] belongs below 10 µM; to `COc1ccc2cc(CN[C@H](C)c3ccc(C)cc3)c(-c3ccncc3)nc2c1` [Example 85, (R)—N-((7-Methoxy-2-(pyridin-4-yl)quinolin-3-yl)methyl)-1-p-tolylethanamine], below 10 µM; to `COc1ccc2cc(CNCc3ccc(F)cc3F)c(-c3ccncc3)nc2c1` [Example 87, N-(2,4-Difluorobenzyl)-1-(7-methoxy-2-(pyridin-4-yl)quinolin-3-yl)methanamine], below 10 µM.

Consider `CN(C)c1ccc2cc(CNCc3ccc(C(F)(F)F)cc3)c(-c3ccsc3)nc2c1` [Example 88, N,N-Dimethyl-2-(thiophen-3-yl)-3-((4-(trifluoromethyl)benzylamino)methyl)quinolin-7-amine], for which the EC50 is above 10 µM.

In the case of `CN(C)c1ccc2cc(CNCCc3ccc(Br)cc3)c(-c3ccsc3)nc2c1` [Example 89, 3-((4-Bromophenethylamino)methyl)-N,N-dimethyl-2-(thiophen-3-yl)quinolin-7-amine], the EC50 was above 10 µM.

Regarding `COc1ccc2cc(CNCc3ccc(C(F)(F)F)cc3)c(-c3ccoc3)nc2c1` [Example 90, 1-(2-(Furan-3-yl)-7-methoxyquinolin-3-yl)-N-(4-(trifluoromethyl)benzyl)methanamine], the EC50 was above 10 µM. To `COc1ccc2cc(CNCc3ccc(F)c(Cl)c3)c(-c3ccncc3)nc2c1` [Example 92, N-(3-Chloro-4-fluorobenzyl)-1-(7-methoxy-2-(pyridin-4-yl)quinolin-3-yl)methanamine] belongs below 10 µM; to `COc1ccc2cc(CNCCc3c[nH]c4ccc(O)cc34)c(-c3ccncc3)nc2c1` [Example 93, 3-(2-((7-Methoxy-2-(pyridin-4-yl)quinolin-3-yl)methylamino)ethyl)-1H-indol-5-ol], above 10 µM; to `COc1ccc2cc(CNCc3ccc(C(F)(F)F)cc3)c(Sc3ccncc3)nc2c1` [Example 94, 1-(7-Methoxy-2-(pyridin-4-ylthio)quinolin-3-yl)-N-(4-(trifluoromethyl)benzyl)methanamine], above 10 µM.

With `COc1ccc2cc(CNCCc3ccc(Cl)cc3)c(Sc3ccncc3)nc2c1` [Example 95, 2-(4-Chlorophenyl)-N-((7-methoxy-2-(pyridin-4-ylthio)quinolin-3-yl)methyl)ethanamine], the EC50 was above 10 µM.

The values are drawn from patent US20080221161A1, “HETEROCYCLIC MODULATORS OF TGR5 FOR TREATMENT OF DISEASE” (KALYPSYS, INC., priority 2007, published 2008).
